Measurements: patent publication US20240196663A1, “DISPLAY APPARATUS, DISPLAY MODULE, AND ELECTRONIC DEVICE” (SEMICONDUCTOR ENERGY LABORATORY CO., LTD., priority 2022, published 2024)

Assay: physchem

c1ccc2c(c1)-c1ccccc1C21c2ccccc2-c2ccc(N3CCCN4CCCN=C43)cc21 [2hppSF, 1-(9,9′-spirobi[9H-fluoren]-2-yl)-1,3,4,6,7,8-hexahydro-2H-pyrimido[1,2-a]pyrimidine]
pKa: 13.9

c1cc(N2CCCn3ccnc32)nc(N2CCCn3ccnc32)c1 [2,6tip2Py, 8,8′-pyridine-2,6-diyl-bis(5,6,7,8-tetrahydroimidazo[1,2-a]pyrimidine)]
pKa: 9.58

c1cnccn1 [pyrazine, reference compound]
pKa: 0.37

c1cnc2c(c1)ccc1cccnc12 [phenanthroline, reference compound]
pKa: 4.8

c1cc(-c2ccc3oc4c(-c5cccc(-c6cccc7c6sc6ccccc67)c5)ncnc4c3c2)cc(-c2cccc3c2sc2ccccc23)c1 [4,8mDBtP2Bfpm, 4,8-bis[3-(dibenzothiophen-4-yl)phenyl]-[1]benzofuro[3,2-d]pyrimidine]
pKa: 0.6

c1cc2ccc3ccc(N4CCCN5CCCN=C54)nc3c2nc1N1CCCN2CCCN=C21 [2,9hpp2Phen, 2,9-bis(1,3,4,6,7,8-hexahydro-2H-pyrimido[1,2-a]pyrimidin-1-yl)-1,10-phenanthroline]
pKa: 13.3

c1cc(N2CCCC2)c2ccc3c(N4CCCC4)ccnc3c2n1 [Pyrrd-Phen, 4,7-di-1-pyrrolidinyl-1,10-phenanthroline]
pKa: 11.2
